Data on one compound can be found in US20200214998A1, “Method for Treating a Brain Cancer” (Allianz Pharmascience Ltd., priority 2019, published 2020).

This assay has as its system U87MG-R. In words: Orthotopic TMZ-resistant GBM mouse model, intracranial U87MG-R. The note with it: TMZ (15 mg/kg oral) plus vehicle; untreated control 21 days.

Structures are written as SMILES.

Procedure: Animal survival was evaluated from the first day of treatment until death.
TMZ-resistant GBM inoculated orthotopic mice were randomly grouped and treated with TMZ or TMZ plus JM17.
Briefly, a skull burr hole was first created in the right frontal brain area. An ultra-fine needle was then inserted to a depth of 3 mm using stereostatic guiding, and 5×10^5 TMZ-resistant cells were injected.
Twenty-eight-week-old nude mice received U87MG-R transplantation. Five days later, these animals were randomized into four treatment groups (7 animals per group), which received TMZ (15 mg/kg) by oral gavage and JM17 by the intravenous injection three times per week (Day 1, 3, 5 of the week) as follows: Control (untreated), TMZ plus vehicle, TMZ plus JM17 (5 mg/kg) and TMZ plus JM17 (20 mg/kg) (FIG. 5).

With `Cn1nnc2c(C(N)=O)ncn2c1=O` [TMZ, temozolomide], the median survival is recorded as 20 days.
